Data reported in article PMC7451048 (Drug metabolism letters, 2019).

Columns and labels:
[1] = test system: OATP1B1; details: cited from earlier work
[2] = test system: OCT/PMAT/MATE transporters; details: read-out: IC50 (OCT/PMAT/MATE inhibitor); reported; ref [44]–[47]; cited from earlier work
[3] = molecular target: T1, OATP2B1 (Homo sapiens, UniProt O94956); details: model substrate at 5 μM (Fig. S2)
T1 sequence (O94956 1-709): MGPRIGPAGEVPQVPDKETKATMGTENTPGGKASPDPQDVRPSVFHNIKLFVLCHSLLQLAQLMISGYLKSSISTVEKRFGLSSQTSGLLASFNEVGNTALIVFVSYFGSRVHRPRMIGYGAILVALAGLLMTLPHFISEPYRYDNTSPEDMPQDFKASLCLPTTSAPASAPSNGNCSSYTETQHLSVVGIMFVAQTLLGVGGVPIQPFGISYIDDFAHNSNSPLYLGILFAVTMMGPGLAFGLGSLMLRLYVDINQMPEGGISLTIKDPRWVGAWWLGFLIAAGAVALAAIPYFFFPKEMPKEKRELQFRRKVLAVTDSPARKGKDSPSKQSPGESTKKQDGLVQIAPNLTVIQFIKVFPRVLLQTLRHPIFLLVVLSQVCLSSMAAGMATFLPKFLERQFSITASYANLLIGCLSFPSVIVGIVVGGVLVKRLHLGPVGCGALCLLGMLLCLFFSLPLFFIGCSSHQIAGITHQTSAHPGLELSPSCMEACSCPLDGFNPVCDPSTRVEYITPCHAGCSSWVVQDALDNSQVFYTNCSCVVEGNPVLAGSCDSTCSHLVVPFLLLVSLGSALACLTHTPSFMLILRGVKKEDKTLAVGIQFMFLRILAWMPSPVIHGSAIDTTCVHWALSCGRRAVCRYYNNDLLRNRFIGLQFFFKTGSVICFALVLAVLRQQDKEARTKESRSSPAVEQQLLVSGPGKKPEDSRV

[4] = molecular target: T2, OATP4A1 (Homo sapiens, UniProt Q96BD0); test: Cellular uptake assay, HEK/OATP4A1 vs HEK empty vector cells; details: model substrate at 5 μM (Fig. S2)
T2 sequence (Q96BD0 1-722): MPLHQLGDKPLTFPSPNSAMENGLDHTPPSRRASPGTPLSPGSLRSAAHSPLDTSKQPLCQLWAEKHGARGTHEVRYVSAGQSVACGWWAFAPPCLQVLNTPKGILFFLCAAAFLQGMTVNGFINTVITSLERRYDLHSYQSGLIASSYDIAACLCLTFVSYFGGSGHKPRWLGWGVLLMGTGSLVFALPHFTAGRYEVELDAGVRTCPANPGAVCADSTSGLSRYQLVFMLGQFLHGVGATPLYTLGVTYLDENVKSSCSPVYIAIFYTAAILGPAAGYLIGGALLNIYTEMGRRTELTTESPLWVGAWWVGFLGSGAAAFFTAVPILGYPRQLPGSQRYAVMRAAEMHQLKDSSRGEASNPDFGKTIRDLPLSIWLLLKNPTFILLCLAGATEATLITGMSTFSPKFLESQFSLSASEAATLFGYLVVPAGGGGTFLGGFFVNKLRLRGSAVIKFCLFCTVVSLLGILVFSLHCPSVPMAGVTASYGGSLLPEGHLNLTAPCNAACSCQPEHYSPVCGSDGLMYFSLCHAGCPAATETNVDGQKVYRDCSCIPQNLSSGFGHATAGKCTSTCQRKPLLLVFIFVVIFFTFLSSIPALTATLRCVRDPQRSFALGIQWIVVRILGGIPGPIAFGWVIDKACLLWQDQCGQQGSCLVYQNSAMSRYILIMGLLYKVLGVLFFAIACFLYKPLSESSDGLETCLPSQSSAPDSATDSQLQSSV

[5] = molecular target: T3, BCRP (Homo sapiens, UniProt Q9UNQ0); test: Plasma membrane vesicle transport assay, BCRP vesicles; type: in vitro ADME; details: model substrate at 5 μM (Fig. S5)
T3 sequence (Q9UNQ0 1-655): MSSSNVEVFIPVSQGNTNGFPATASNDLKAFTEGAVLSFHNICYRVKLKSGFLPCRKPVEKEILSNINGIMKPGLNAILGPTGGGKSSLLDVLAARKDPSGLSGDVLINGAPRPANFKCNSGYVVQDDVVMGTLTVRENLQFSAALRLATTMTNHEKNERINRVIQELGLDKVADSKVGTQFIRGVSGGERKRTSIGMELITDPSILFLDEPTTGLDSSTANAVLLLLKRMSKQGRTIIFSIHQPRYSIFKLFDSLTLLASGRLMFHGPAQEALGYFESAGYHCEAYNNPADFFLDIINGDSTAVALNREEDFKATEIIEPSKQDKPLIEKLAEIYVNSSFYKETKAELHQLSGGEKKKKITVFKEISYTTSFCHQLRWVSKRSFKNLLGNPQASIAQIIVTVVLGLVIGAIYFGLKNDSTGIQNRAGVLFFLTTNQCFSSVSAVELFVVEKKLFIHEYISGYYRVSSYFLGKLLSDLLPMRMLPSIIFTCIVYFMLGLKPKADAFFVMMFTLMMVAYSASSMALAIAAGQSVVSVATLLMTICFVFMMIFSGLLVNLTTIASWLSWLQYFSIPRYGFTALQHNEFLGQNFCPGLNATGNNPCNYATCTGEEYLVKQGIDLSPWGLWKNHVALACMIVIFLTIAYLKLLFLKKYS

[6] = molecular target: T4, OATP1B1 (Homo sapiens, UniProt Q9Y6L6); details: model substrate at 5 μM (Fig. S2)
T4 sequence (Q9Y6L6 1-691): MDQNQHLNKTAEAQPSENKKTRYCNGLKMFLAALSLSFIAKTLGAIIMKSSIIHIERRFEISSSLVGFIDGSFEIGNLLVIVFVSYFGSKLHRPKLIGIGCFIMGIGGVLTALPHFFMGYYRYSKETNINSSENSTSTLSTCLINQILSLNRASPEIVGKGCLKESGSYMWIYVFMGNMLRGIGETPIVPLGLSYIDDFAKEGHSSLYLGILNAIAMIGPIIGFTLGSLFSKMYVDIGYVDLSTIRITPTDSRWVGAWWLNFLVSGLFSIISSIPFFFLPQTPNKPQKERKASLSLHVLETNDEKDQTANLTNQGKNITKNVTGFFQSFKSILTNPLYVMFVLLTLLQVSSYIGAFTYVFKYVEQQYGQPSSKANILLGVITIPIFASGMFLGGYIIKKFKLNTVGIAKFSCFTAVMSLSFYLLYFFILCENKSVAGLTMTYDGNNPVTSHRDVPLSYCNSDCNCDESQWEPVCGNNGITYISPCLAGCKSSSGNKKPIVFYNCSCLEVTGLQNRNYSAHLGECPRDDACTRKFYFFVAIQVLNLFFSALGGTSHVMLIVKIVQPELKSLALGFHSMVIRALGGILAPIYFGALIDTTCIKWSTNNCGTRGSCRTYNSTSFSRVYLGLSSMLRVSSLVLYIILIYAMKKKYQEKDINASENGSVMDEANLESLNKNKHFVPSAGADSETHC

[7] = molecular target: T5, OATP1B3 (Homo sapiens, UniProt Q9NPD5); details: model substrate at 5 μM (Fig. S2)
T5 sequence (Q9NPD5 1-702): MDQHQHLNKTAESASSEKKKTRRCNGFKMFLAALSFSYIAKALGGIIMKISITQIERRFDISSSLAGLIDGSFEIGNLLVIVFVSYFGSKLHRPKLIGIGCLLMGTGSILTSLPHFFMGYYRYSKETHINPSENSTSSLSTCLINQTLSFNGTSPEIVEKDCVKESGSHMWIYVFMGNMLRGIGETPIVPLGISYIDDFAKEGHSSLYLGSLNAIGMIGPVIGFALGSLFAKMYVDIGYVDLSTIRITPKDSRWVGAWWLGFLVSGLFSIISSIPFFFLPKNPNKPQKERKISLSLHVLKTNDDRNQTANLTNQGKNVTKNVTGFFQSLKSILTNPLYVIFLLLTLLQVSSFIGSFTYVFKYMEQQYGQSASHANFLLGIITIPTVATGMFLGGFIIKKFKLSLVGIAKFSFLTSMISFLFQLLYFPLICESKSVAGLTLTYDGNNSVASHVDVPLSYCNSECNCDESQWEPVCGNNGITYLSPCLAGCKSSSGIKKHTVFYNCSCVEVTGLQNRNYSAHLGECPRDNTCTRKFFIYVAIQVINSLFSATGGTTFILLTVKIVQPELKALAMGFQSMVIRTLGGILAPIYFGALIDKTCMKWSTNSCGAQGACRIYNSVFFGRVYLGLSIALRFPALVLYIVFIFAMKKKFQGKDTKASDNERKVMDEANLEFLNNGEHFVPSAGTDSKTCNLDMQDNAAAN

[8] = molecular target: MRP2 (Homo sapiens, UniProt Q92887); test: Plasma membrane vesicle transport assay, MRP2 vesicles; details: model substrate at 5 μM (Fig. S5)
Sequence of MRP2 (Q92887 whole entry): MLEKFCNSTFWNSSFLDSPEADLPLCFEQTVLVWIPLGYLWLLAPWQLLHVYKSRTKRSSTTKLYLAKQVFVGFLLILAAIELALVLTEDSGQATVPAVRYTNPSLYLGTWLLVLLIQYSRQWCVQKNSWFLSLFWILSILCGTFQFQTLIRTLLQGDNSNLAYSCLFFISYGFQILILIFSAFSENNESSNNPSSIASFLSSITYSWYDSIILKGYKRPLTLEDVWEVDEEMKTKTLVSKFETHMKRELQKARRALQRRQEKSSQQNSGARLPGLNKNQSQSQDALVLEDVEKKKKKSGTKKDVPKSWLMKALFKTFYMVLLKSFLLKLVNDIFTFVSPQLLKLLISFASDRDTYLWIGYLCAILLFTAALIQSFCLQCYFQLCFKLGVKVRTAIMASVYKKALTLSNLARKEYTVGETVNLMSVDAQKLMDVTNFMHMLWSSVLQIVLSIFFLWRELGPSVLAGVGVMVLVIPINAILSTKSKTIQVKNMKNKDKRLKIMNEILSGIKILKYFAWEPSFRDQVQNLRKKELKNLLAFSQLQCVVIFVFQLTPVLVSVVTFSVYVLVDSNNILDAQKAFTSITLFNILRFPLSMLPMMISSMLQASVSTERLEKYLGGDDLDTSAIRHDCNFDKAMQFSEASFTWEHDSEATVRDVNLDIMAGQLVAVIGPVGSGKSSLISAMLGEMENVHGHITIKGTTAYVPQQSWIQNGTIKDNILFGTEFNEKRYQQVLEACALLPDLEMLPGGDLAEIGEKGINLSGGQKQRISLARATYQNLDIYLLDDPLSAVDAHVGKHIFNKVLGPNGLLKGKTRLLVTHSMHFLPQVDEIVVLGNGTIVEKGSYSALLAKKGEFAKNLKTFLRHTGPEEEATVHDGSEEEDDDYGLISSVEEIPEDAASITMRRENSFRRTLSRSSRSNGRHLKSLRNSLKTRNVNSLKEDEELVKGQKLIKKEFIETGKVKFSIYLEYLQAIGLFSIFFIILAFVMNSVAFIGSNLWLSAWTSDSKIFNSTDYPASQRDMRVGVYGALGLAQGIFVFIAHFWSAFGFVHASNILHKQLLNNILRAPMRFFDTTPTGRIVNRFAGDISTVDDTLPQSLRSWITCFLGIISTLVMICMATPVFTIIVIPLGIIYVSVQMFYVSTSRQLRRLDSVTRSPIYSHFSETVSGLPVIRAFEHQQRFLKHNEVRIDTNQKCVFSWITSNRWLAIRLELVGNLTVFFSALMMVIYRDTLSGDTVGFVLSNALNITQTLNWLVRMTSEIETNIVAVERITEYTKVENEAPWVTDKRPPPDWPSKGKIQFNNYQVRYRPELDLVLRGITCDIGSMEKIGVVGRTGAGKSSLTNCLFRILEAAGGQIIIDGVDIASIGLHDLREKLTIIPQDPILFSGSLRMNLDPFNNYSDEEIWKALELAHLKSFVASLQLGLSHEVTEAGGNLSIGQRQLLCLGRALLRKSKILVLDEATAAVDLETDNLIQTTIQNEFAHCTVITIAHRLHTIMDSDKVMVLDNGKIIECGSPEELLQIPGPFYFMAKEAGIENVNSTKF

[9] = test system: OATP1B3; details: read-out: IC50 for OATP1B3; reported; ref [22], [41]–[43]; cited from earlier work
[10] = test system: OATP2B1; details: read-out: IC50 for OATP2B1; reported; ref [22], [41]–[43]; cited from earlier work
[11] = molecular target: T6, OCT1 (Homo sapiens, UniProt O15245); test: Cellular uptake assay, HEK/OCT1 vs HEK empty vector cells; details: model substrate (Fig. S2)
T6 sequence (O15245 1-554): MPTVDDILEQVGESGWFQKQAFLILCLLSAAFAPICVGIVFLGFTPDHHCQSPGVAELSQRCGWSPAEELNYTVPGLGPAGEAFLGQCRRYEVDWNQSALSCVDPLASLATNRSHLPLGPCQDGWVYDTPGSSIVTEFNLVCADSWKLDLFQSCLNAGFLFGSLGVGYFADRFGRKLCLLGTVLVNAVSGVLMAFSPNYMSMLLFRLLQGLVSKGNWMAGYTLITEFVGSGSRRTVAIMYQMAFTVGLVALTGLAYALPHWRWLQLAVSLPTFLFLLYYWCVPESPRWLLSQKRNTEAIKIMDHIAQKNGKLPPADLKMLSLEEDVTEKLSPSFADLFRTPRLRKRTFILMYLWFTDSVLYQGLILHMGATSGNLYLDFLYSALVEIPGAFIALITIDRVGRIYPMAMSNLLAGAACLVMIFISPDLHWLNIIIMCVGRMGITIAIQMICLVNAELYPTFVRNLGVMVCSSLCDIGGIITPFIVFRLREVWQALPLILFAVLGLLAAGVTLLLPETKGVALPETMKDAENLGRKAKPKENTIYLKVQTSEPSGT

[12] = test system: OAT; details: read-out: IC50 (OAT inhibitor); reported; ref [44]–[47]; cited from earlier work
[13] = substrate: CC(NC(C)(C)C)C(=O)c1cccc(Cl)c1

COC(=O)[C@H](c1ccccc1Cl)N1CCc2sccc2C1 [Clopidogrel]
Inhibition of OATP1B1 ([1]; ref [26]): effective inhibitor

CCN1/C(=C/c2ccc3ccccc3[n+]2CC)C=Cc2ccccc21 [D-22, Decynium-22]
IC50 [2]: 13800 to 21900 nM

C[C@]12CC[C@@H]3c4ccc(OS(=O)(=O)O)cc4CC[C@H]3[C@@H]1CCC2=O [E1-3-S, Estrone-3-sulfate, reference compound]
Uptake into HEK/OATP2B1 cells relative to HEK vector control cells [3]: 42 times | Uptake into HEK/OATP4A1 cells relative to HEK vector control cells [4]: 20 times

C[C@]12CC[C@@H]3c4ccc(O)cc4CC[C@H]3[C@@H]1CC[C@@H]2O[C@@H]1O[C@H](C(=O)O)[C@@H](O)[C@H](O)[C@H]1O [E2-17β-G, estradiol-17β-glucuronide, reference compound]
Uptake into BCRP vesicles in the presence of ATP relative to AMP [5]: 10–100 times | Uptake into CHO/OATP1B1 cells relative to CHO wild-type parent cells [6]: approximately 6 times | Uptake into CHO/OATP1B3 cells relative to CHO wild-type parent cells [7]: ~2 times | Uptake into MRP2 vesicles in the presence of ATP relative to AMP [8]: 10–100 times

CO[C@H]1/C=C/O[C@@]2(C)Oc3c(C)c(O)c4c(O)c(c(/C=N/N5CCN(C)CC5)c(O)c4c3C2=O)NC(=O)/C(C)=C\C=C\[C@H](C)[C@H](O)[C@@H](C)[C@@H](O)[C@@H](C)[C@H](OC(C)=O)[C@@H]1C [RIF, Rifampin]
IC50 ([1]; read-out: IC50 for OATP1B1, reported, ref [22], [41]–[43]): 1500 to 3250 nM | IC50 [9]: 1500 to 2600 nM | IC50 [10]: 2100 nM

C[n+]1ccc(-c2ccccc2)cc1 [[^3H]-MPP^+, reference compound]
Uptake into OCT1-overexpressing cells relative to vector control cells [11]: 15 times

CCCN(CCC)S(=O)(=O)c1ccc(C(=O)O)cc1 [probenecid]
IC50 [12]: 3100 to 7400 nM

B1: OATP1B1 (Homo sapiens) (protein)
chain: MDQNQHLNKTAEAQPSENKKTRYCNGLKMFLAALSLSFIAKTLGAIIMKSSIIHIERRFEISSSLVGFIDGSFEIGNLLVIVFVSYFGSKLHRPKLIGIGCFIMGIGGVLTALPHFFMGYYRYSKETNINSSENSTSTLSTCLINQILSLNRASPEIVGKGCLKESGSYMWIYVFMGNMLRGIGETPIVPLGLSYIDDFAKEGHSSLYLGILNAIAMIGPIIGFTLGSLFSKMYVDIGYVDLSTIRITPTDSRWVGAWWLNFLVSGLFSIISSIPFFFLPQTPNKPQKERKASLSLHVLETNDEKDQTANLTNQGKNITKNVTGFFQSFKSILTNPLYVMFVLLTLLQVSSYIGAFTYVFKYVEQQYGQPSSKANILLGVITIPIFASGMFLGGYIIKKFKLNTVGIAKFSCFTAVMSLSFYLLYFFILCENKSVAGLTMTYDGNNPVTSHRDVPLSYCNSDCNCDESQWEPVCGNNGITYISPCLAGCKSSSGNKKPIVFYNCSCLEVTGLQNRNYSAHLGECPRDDACTRKFYFFVAIQVLNLFFSALGGTSHVMLIVKIVQPELKSLALGFHSMVIRALGGILAPIYFGALIDTTCIKWSTNNCGTRGSCRTYNSTSFSRVYLGLSSMLRVSSLVLYIILIYAMKKKYQEKDINASENGSVMDEANLESLNKNKHFVPSAGADSETHC
Km [13]: 31 ± 7 µM | Vmax [13]: 1407±91 pmol/mg protein/min
